From the NIST ThermoML archive (doi:10.1016/j.jct.2018.12.039)
± gives the expanded uncertainty stated by the source.

Test: xn = mol fraction of the nth substance listed
Conditions: 100 kPa, Liquid; for speed of sound: Frequency=2 MHz, Linear variable-path acoustic interferometer; for mass density: Vibrating tube method

Cc1ccccc1O [2-methylphenol] + CCO
Conditions	mass density, 303.15 K [kg/m3]	mass density, 308.15 K [kg/m3]	mass density, 313.15 K [kg/m3]	mass density, 318.15 K [kg/m3]	speed of sound, 303.15 K [m/s]	speed of sound, 313.15 K [m/s]
x2 = 0	1037.02 ± 1.2	1032.58 ± 1.2	1028.19 ± 1.2	1023.82 ± 1.2	1488.1 ± 2.5	1453 ± 2.5
x2 = 0.1387	1015.95 ± 1.2	1011.54 ± 1.2	1007.18 ± 1.2	1002.83 ± 1.2	1435.4 ± 2.5	1401.2 ± 2.5
x2 = 0.2617	994.82 ± 1.2	990.39 ± 1.2	986.02 ± 1.2	981.62 ± 1.2	1391.2 ± 2.5	1355.4 ± 2.4
x2 = 0.3713	973.68 ± 1.2	969.21 ± 1.2	964.81 ± 1.2	960.38 ± 1.2	1351.2 ± 2.4	1314.6 ± 2.4
x2 = 0.4698	952.47 ± 1.2	947.97 ± 1.2	943.57 ± 1.2	939.1 ± 1.2	1314.2 ± 2.4	1277.9 ± 2.4
x2 = 0.5586	931.22 ± 1.2	926.73 ± 1.2	922.33 ± 1.2	917.85 ± 1.2	1280.2 ± 2.4	1245 ± 2.4
x2 = 0.6392	909.96 ± 1.2	905.45 ± 1.2	901.08 ± 1.2	896.59 ± 1.2	1249.3 ± 2.4	1215.3 ± 2.4
x2 = 0.7127	888.59 ± 1.2	884.08 ± 1.2	879.74 ± 1.2	875.23 ± 1.2	1221.5 ± 2.4	1188.6 ± 2.4
x2 = 0.7799	867.19 ± 1.2	862.71 ± 1.2	858.37 ± 1.2	853.88 ± 1.2	1196.9 ± 2.4	1164.8 ± 2.4
x2 = 0.8417	845.72 ± 1.2	841.26 ± 1.2	836.92 ± 1.2	832.43 ± 1.2	1175.2 ± 2.4	1143.6 ± 2.4
x2 = 0.8986	824.22 ± 1.2	819.77 ± 1.2	815.43 ± 1.2	810.91 ± 1.2	1156.5 ± 2.4	1124.8 ± 2.4
x2 = 0.951	802.69 ± 1.2	798.22 ± 1.2	793.89 ± 1.2	789.33 ± 1.2	1140.6 ± 2.4	1108.4 ± 2.4

Cc1cccc(O)c1 [3-methylphenol] + CCO
Conditions	mass density, 303.15 K [kg/m3]	mass density, 308.15 K [kg/m3]	mass density, 313.15 K [kg/m3]	mass density, 318.15 K [kg/m3]	speed of sound, 303.15 K [m/s]	speed of sound, 313.15 K [m/s]
x2 = 0	1025.71 ± 1.2	1021.7 ± 1.2	1017.69 ± 1.2	1013.65 ± 1.2	1466.1 ± 2.5	1436.1 ± 2.5
x2 = 0.14	1005.48 ± 1.2	1001.45 ± 1.2	997.42 ± 1.2	993.36 ± 1.2	1426.7 ± 2.5	1398.2 ± 2.5
x2 = 0.2637	985.23 ± 1.2	981.17 ± 1.2	977.1 ± 1.2	972.97 ± 1.2	1384.7 ± 2.5	1355 ± 2.5
x2 = 0.3738	964.94 ± 1.2	960.82 ± 1.2	956.72 ± 1.2	952.53 ± 1.2	1344.9 ± 2.4	1313.8 ± 2.4
x2 = 0.4724	944.63 ± 1.2	940.47 ± 1.2	936.35 ± 1.2	932.08 ± 1.2	1308.5 ± 2.4	1276.5 ± 2.4
x2 = 0.5612	924.32 ± 1.2	920.08 ± 1.2	915.95 ± 1.2	911.64 ± 1.2	1275.8 ± 2.4	1243.4 ± 2.4
x2 = 0.6417	903.96 ± 1.2	899.68 ± 1.2	895.51 ± 1.2	891.18 ± 1.2	1246.6 ± 2.4	1214 ± 2.4
x2 = 0.7149	883.56 ± 1.2	879.25 ± 1.2	875.06 ± 1.2	870.68 ± 1.2	1220.5 ± 2.4	1188 ± 2.4
x2 = 0.7817	863.15 ± 1.2	858.83 ± 1.2	854.61 ± 1.2	850.21 ± 1.2	1197.2 ± 2.4	1164.7 ± 2.4
x2 = 0.8431	842.67 ± 1.2	838.32 ± 1.2	834.07 ± 1.2	829.62 ± 1.2	1176.3 ± 2.4	1143.9 ± 2.4
x2 = 0.8995	822.2 ± 1.2	817.81 ± 1.2	813.53 ± 1.2	809.06 ± 1.2	1157.8 ± 2.4	1125.3 ± 2.4
x2 = 0.9517	801.66 ± 1.2	797.22 ± 1.2	792.9 ± 1.2	788.34 ± 1.2	1141.4 ± 2.4	1108.7 ± 2.4

Cc1ccc(O)cc1 [4-methylphenol] + CCO
Conditions	mass density, 303.15 K [kg/m3]	mass density, 308.15 K [kg/m3]	mass density, 313.15 K [kg/m3]	mass density, 318.15 K [kg/m3]	speed of sound, 303.15 K [m/s]	speed of sound, 313.15 K [m/s]
x2 = 0	1026.47 ± 1.2	1022.56 ± 1.2	1018.64 ± 1.2	1014.68 ± 1.2	1473 ± 2.5	1440.2 ± 2.5
x2 = 0.1392	1006.2 ± 1.2	1002.27 ± 1.2	998.32 ± 1.2	994.31 ± 1.2	1435.7 ± 2.5	1402.3 ± 2.5
x2 = 0.2624	985.93 ± 1.2	981.96 ± 1.2	977.97 ± 1.2	973.9 ± 1.2	1392.4 ± 2.5	1359.7 ± 2.5
x2 = 0.3722	965.59 ± 1.2	961.62 ± 1.2	957.61 ± 1.2	953.46 ± 1.2	1350.4 ± 2.5	1318.2 ± 2.5
x2 = 0.4707	945.23 ± 1.2	941.23 ± 1.2	937.2 ± 1.2	932.96 ± 1.2	1311.9 ± 2.5	1280 ± 2.4
x2 = 0.5595	924.86 ± 1.2	920.83 ± 1.2	916.75 ± 1.2	912.45 ± 1.2	1277.5 ± 2.4	1245.8 ± 2.4
x2 = 0.6401	904.44 ± 1.2	900.38 ± 1.2	896.25 ± 1.2	891.89 ± 1.2	1247 ± 2.4	1215.1 ± 2.4
x2 = 0.7134	883.97 ± 1.2	879.86 ± 1.2	875.69 ± 1.2	871.3 ± 1.2	1220.1 ± 2.4	1188 ± 2.4
x2 = 0.7805	863.47 ± 1.2	859.3 ± 1.2	855.09 ± 1.2	850.66 ± 1.2	1196.3 ± 2.4	1164 ± 2.4
x2 = 0.8421	842.93 ± 1.2	838.68 ± 1.2	834.45 ± 1.2	829.99 ± 1.2	1175.3 ± 2.4	1142.8 ± 2.4
x2 = 0.8989	822.33 ± 1.2	818.01 ± 1.2	813.74 ± 1.2	809.25 ± 1.2	1156.8 ± 2.4	1124.1 ± 2.4
x2 = 0.9514	801.71 ± 1.2	797.31 ± 1.2	793.01 ± 1.2	788.43 ± 1.2	1140.8 ± 2.4	1107.9 ± 2.4
